Test [1] has as its target K-Ras^G12C : hSOS1 interaction (Homo sapiens, UniProt Q07889). Briefly: Biochemical assay 1: K-Ras^G12C interaction assay with hSOS1 (HTRF). It counts as binding. Conditions: for IC50: read-out: Assay 1 (KRAS-SOS Interaction) activity expressed as IC50; for inhibition at 20 µM: read-out: Assay 1 (KRAS-SOS Interaction) activity expressed as % inhibition at 20 μM. How it is done: Biochemical assay 1: K-Ras^G12C Interaction Assay with hSOS1
This assay quantifies the equilibrium interaction of human SOS1 with K-Ras^Gl2C. Detection of the interaction is achieved by measuring homogenous time-resolved fluorescence resonance energy transfer (HTRF) from antiGST-Europium (FRET donor) bound to GST-K-Ras^G12C to anti-6His-XL665 bound to His-tagged hSOS1 (FRET-acceptor).
The assay buffer contained 5 mM HEPES pH 7.4 (Applichem), 150 mM NaCl (Sigma), 10 mM EDTA (Promega), 1 mM DTT (Thermofisher), 0.05% BSA Fraction V, pH 7.0, (ICN Biomedicals), 0.0025% (v/v) Igepal (Sigma) and 100 mM KF (FLUKA).
Concentrations of protein batches used were optimized to be within the linear range of the HTRF signal. A Ras working solution was prepared in assay buffer containing typically 10 nM GST-hK-RasG12C and 2 nM antiGST-Eu(K) (Cisbio, France). A SOS working solution was prepared in assay buffer containing typically 20 nM His-hSOS1 and 10 nM anti-6His-XL665 (Cisbio, France). An inhibitor control solution was prepared in assay buffer containing 10 nM anti-6His-XL665 without hSOS1.
Fifty nl of a 100-fold concentrated solution of the test compound in DMSO were transferred into a black microtiter test plate (384 or 1536, Greiner Bio-One, Germany). For this, either a Hummingbird liquid handler (Digilab, MA, USA) or an Echo acoustic system (Labcyte, CA, USA) was used.
All steps of the assay were performed at 20° C. A volume of 2.5 μl of the Ras working solution was added to all wells of the test plate using a Multidrop dispenser (Thermo Labsystems). After 2 min preincubation, 2.5 μl of the SOS working solution were added to all wells except for those wells at the side of the test plate that were subsequently filled with 2.5 μl of the inhibitor control solution. After 60 min incubation the fluorescence was measured with a Pherastar (BMG, Germany) using the HTRF module (excitation 337 nm, emission 1: 620 nm, emission 2: 665 nm).
IC50 values were calculated by 4-Parameter fitting using a commercial software package (Genedata Screener, Switzerland).
A general note: TR-FRET usually uses a lanthanide donor and a delayed reading to cut background.

Test [2] deals with human SOS1 (loading of human K-Ras^G12C-GDP with fluorescent GTP-analog) (Homo sapiens, UniProt Q07889). Briefly: Biochemical assay 3: K-Ras^G12C activation assay by hSOS1 (HTRF). As to conditions: no GTP; for IC50: read-out: Assay 3 (KRAS-Activation by SOS no GTP) activity expressed as IC50; for inhibition at 20 µM: read-out: Assay 3 (KRAS-Activation by SOS no GTP) activity expressed as % inhibition at 20 μM.

Test [3] addresses human SOS1 (nucleotide exchange of K-Ras^G12C) (Homo sapiens, UniProt Q07889). Briefly: Biochemical assay 2: K-Ras^G12C activation assay by hSOS1 at high GTP concentration (HTRF). Conditions: high GTP; for IC50: read-out: Assay 2 (KRAS-Activation by SOS high GTP) activity expressed as IC50; for inhibition at 20 µM: read-out: Assay 2 (KRAS-Activation by SOS high GTP) activity expressed as % inhibition at 20 μM.

Consider 21 molecules from patent US20240083857A1, “2-Methyl-Quinazolines” (Bayer Pharma Aktiengesellschaft, priority 2017, published 2024).

What is called IC50 is the midpoint of a concentration-inhibition curve. Consider `COc1cc2nc(C)nc(N[C@H](C)c3cccc(-c4cccc(CNS(C)(=O)=O)c4)c3)c2cc1OC` [Example 71, N-[(3′-{(1R)-1-[(6,7-dimethoxy-2-methylquinazolin-4-yl)amino]ethyl}biphenyl-3-yl)methyl]methanesulfonamide], for which the IC50 in test [1] stood at 393 nM; in test [2] it was 680 nM; in test [3], 643 nM.
The matching figures for `COc1cc2nc(C)nc(N[C@H](C)c3cccc(-c4ccc5[nH]ccc5c4)c3)c2cc1OC` [Example 85, N-{(1R)-1-[3-(1H-indol-5-yl)phenyl]ethyl}-6,7-dimethoxy-2-methylquinazolin-4-amine]: 687 nM, 1260 nM and 756 nM.
The matching figures for `CNC(=O)CNCc1ccccc1-c1ccc(C(C)Nc2nc(C)nc3cc(OC)c(OC)cc23)s1` (stereo not drawn) [Example 282, 2-[2-(5-{1-[(6,7-dimethoxy-2-methylquinazolin-4-yl)amino]ethyl}thiophen-2-yl)benzyl]-N-methylglycinamide]: 257 nM, 212 nM and 265 nM.
For orientation: inhibition means how much of the control response was suppressed. On to `COc1cc2nc(C)nc(N[C@@H](C)c3ccc(/C=C/C4CC4)s3)c2cc1OC` (racemic) [Example 132, N-[1-{5-[(E)-2-cyclopropylethenyl]thiophen-2-yl}ethyl]-6,7-dimethoxy-2-methylquinazolin-4-amine], for which the figures for the IC50 in test [1] and in test [3] were 6580 nM and 8050 nM, respectively. For the same molecule, in test [2], the inhibition at 20 µM was found to be 46%.
With `COc1cc2nc(C)nc(N[C@H](C)c3cccc(-c4ccc(C(=O)N(C)C)cc4)c3)c2cc1OC` [Example 115, 3′-{(1R)-1-[(6,7-dimethoxy-2-methylquinazolin-4-yl)amino]ethyl}-N,N-dimethylbiphenyl-4-carboxamide], the IC50 came to 865 nM in test [1], 1570 nM in test [2] and 802 nM in test [3].
The matching figures for `COc1cc2nc(C)nc(N[C@H](C)c3cccc(-c4cc(N)ccc4C)c3)c2cc1OC` [Example 36, N-[(1R)-1-(5′-amino-2′-methylbiphenyl-3-yl)ethyl]-6,7-dimethoxy-2-methylquinazolin-4-amine]: 542 nM, 696 nM and 1000 nM.
Take `COc1cc2nc(C)nc(N[C@@H](C)c3ccc(/C=C/Cc4ccccc4)s3)c2cc1OC` (racemic) [Example 145, 6,7-dimethoxy-2-methyl-N-[1-{5-[(1E)-3-phenylprop-1-en-1-yl]thiophen-2-yl}ethyl]quinazolin-4-amine]: the inhibition at 20 µM in test [1] amounted to 40%; in test [2] it was 11%; in test [3], 18%.
In the case of `COc1cc2nc(C)nc(N[C@@H](C)c3ccc(-c4ccccc4Oc4ccccc4)s3)c2cc1OC` (stereo in doubt) [Example 158, 6,7-dimethoxy-2-methyl-N-{1-[5-(2-phenoxyphenyl)thiophen-2-yl]ethyl}quinazolin-4-amine], the figures for the inhibition at 20 µM in test [1], in test [2] and in test [3] were 29%, 10% and 4%, respectively.
As to `COc1cc2nc(C)nc(N[C@H](C)c3cccc(-c4ccccc4S(=O)(=O)N(C)C)c3)c2cc1OC` [Example 101, 3′-{(1R)-1-[(6,7-dimethoxy-2-methylquinazolin-4-yl)amino]ethyl}-N,N-dimethylbiphenyl-2-sulfonamide], the figures for the IC50 in test [1], in test [2] and in test [3] were 715 nM, 1800 nM and 897 nM, respectively.
Take `COc1cc2nc(C)nc(N[C@@H](C)c3ccc(-c4cccc(/C=C/C#N)c4)s3)c2cc1OC` (racemic) [Example 160, (2E)-3-[3-(5-{1-[(6,7-dimethoxy-2-methylquinazolin-4-yl)amino]ethyl}thiophen-2-yl)phenyl]prop-2-enenitrile]: the IC50 in test [1] amounted to 16100 nM. For the same molecule, the figures for the inhibition at 20 µM in test [2] and in test [3] were 13% and 33%, respectively.
For `COc1cc2nc(C)nc(N[C@H](C)c3cccc(/C=C/C4CC4)c3)c2cc1OC` [Example 63, N-[(1R)-1-{3-[(E)-2-cyclopropylethenyl]phenyl}ethyl]-6,7-dimethoxy-2-methylquinazolin-4-amine], the IC50 in test [1] is 1130 nM; in test [2] it was 1880 nM; in test [3], 1800 nM.
The corresponding values for `COc1cc2nc(C)nc(N[C@@H](C)c3ccc(-c4cncc(C)c4)s3)c2cc1OC` (racemic) [Example 46, 6,7-dimethoxy-2-methyl-N-{1-[5-(5-methylpyridin-3-yl)thiophen-2-yl]ethyl}quinazolin-4-amine] are 2370 nM, 4100 nM and 3820 nM.
The matching figures for `COc1cc2nc(C)nc(N[C@@H](C)c3ccc(-c4ccc(C)cc4C)s3)c2cc1OC` (racemic) [Example 161, N-{1-[5-(2,4-dimethylphenyl)thiophen-2-yl]ethyl}-6,7-dimethoxy-2-methylquinazolin-4-amine]: 4170 nM, 7000 nM and 3970 nM.
Regarding `COc1cc2nc(C)nc(N[C@@H](C)c3ccc(-c4ccncc4C)s3)c2cc1OC` (racemic) [Example 53, 6,7-dimethoxy-2-methyl-N-{1-[5-(3-methylpyridin-4-yl)thiophen-2-yl]ethyl}quinazolin-4-amine], the half-maximal inhibitory concentration (IC50) came out at 669 nM in test [1], 1080 nM in test [2] and 1280 nM in test [3].
For the molecule `COc1cc2nc(C)nc(N[C@H](C)c3cccc(-c4ccn[nH]4)c3)c2cc1OC` [Example 75, 6,7-dimethoxy-2-methyl-N-{(1R)-1-[3-(1H-pyrazol-3-yl)phenyl]ethyl}quinazolin-4-amine], the IC50 in test [1] came out at 588 nM; in test [2], 1010 nM; in test [3], 1150 nM.
As to `COc1cc2nc(C)nc(N[C@@H](C)c3ccc(-c4cncc(S(C)(=O)=O)c4)s3)c2cc1OC` (racemic) [Example 127], the IC50 in test [1] was found to be 17800 nM. The figures for the inhibition at 20 µM in test [2] and in test [3] were 42% and 44%, respectively.
For the molecule `CCCCOc1cccc(F)c1-c1ccc([C@H](C)Nc2nc(C)nc3cc(OC)c(OC)cc23)s1` (stereo in doubt) [Example 136, N-{1-[5-(2-butoxy-6-fluorophenyl)thiophen-2-yl]ethyl}-6,7-dimethoxy-2-methylquinazolin-4-amine], the figures for the inhibition at 20 µM in test [1], in test [2] and in test [3] were 37%, 18% and 20%, respectively.
The corresponding values for `COc1cc2nc(C)nc(N[C@@H](C)c3ccc(/C=C/C4CCCCC4)s3)c2cc1OC` (racemic) [Example 157, N-[1-{5-[(E)-2-cyclohexylethenyl]thiophen-2-yl}ethyl]-6,7-dimethoxy-2-methylquinazolin-4-amine] are 44%, 12% and 19%.
As to `COc1cc2nc(C)nc(N[C@H](C)c3cccc(-c4ccccc4Oc4ccccc4)c3)c2cc1OC` [Example 91, 6,7-dimethoxy-2-methyl-N-[(1R)-1-(2′-phenoxybiphenyl-3-yl)ethyl]quinazolin-4-amine], the half-inhibitory concentration (IC50) in test [1] was 15000 nM. Also, the inhibition at 20 µM amounted to 38% in test [2] and 36% in test [3].
Turning to `COc1cc2nc(C)nc(NC(C)c3ccc(-c4ccccc4CNCC(N)=O)s3)c2cc1OC` (stereo not drawn) [Example 279, 2-[2-(5-{1-[(6,7-dimethoxy-2-methylquinazolin-4-yl)amino]ethyl}thiophen-2-yl)-benzyl]glycinamide], the figures for the IC50 in test [1], in test [2] and in test [3] were 176 nM, 160 nM and 168 nM, respectively.
Turning to `COc1cc2nc(C)nc(N[C@@H](C)c3ccc(-c4c(C)noc4C)s3)c2cc1OC` (racemic) [Example 147, N-{1-[5-(3,5-dimethyl-1,2-oxazol-4-yl)thiophen-2-yl]ethyl}-6,7-dimethoxy-2-methylquinazolin-4-amine], the IC50 turned out to be 397 nM in test [1], 658 nM in test [2] and 767 nM in test [3].
